Laboratory results taken from patent US4897503A, “1,1,2-triaryl-1-alkene derivatives” (Taiho Pharmaceutical, priority 1986, dated 1990).
Read-outs that look alike come from different tables or passages of the source.

Assays:
uterus = assay: Anti-uterotrophic effect (inhibition of uterine weight gain in immature rats); type: in vivo, rat (Sprague-Dawley, female; settings: Rattus norvegicus, 504 h, read-out: ED50 (50% inhibition of uterine weight gain)
Text: The antiuterotophic activity of each test compound was studied using immature 4-week-old female Sprague-Dawley rats, according to the method described in Methods in Hormone Research, vol. 2, Academic Press p. 707 (1962).
Each test compound was suspended in a vehicle solution (i.e., an aqueous solution containing 0.5% of carboxymethylcellulose and 0.5% of Tween 80) and the suspension was orally administered using a stomach tube 6 times a week for 3 consecutive weeks at various doses. The animals were autopsied one day after the final administration and the uterus was weighed.
The percent inhibition of uterine weight gain was calculated by the formula
Percent inhibition=(A-C)×100/(A-B)
where A is the mean value of the uterine weight of the control which received the vehicle solution, B is that of the ovariectomized control (i.e., animals ovariectomized at the age of four weeks and thereafter treated with the vehicle solution for 3 weeks) and C is that of the animals which received each dose of each test compound. Then, the dose of each test compound causing a 50% inhibition (ED50) was calculated from the dose-response curve.

[1] = tested on: mammary cancer induced by 7,12-dimethylbenzanthracene (DMBA); assay: Effect on DMBA-induced mammary cancer: inhibition of tumor growth; type: in vivo, rat (Sprague-Dawley, female); settings: 6 times a week for 3 weeks, 15 animals
Experimental: (§1) The experiments were performed in 7-week-old female Sprague-Dawley rats bearing mammary cancer which had been induced by oral administration of 7,12-dimethylbenzanthracene (DMBA) according to the method described in European Journal of Cancer and Clinical Oncology 11, 571 (1975) and Cancer Research 26, 2169 (1966). The inhibitory effect of each test compound on this cancer was investigated.
(§2) Each test compound was suspended in an aqueous solution containing 0.5% of carboxymethylcellulose and 0.5% of Tween 80 and the suspension was orally administered by gastric gavage 6 times a week for 3 consecutive weeks. Once a week and on the 21st day, the number of induced tumors was counted and the surface area of tumors was measured. The percent increase in surface area relative to the surface area on the first day of administration was calculated and the result was compared with the result in the control group. The inhibitory effects on the appearance of new tumor are shown in Table 7 and the inhibitory effects on the enlargement of the tumor are shown in Table 8. The inhibition of appearance of new tumor (%) was calculated according to the formula: 100-(N/M)×100 where N is the number of newly appeared tumors in test group and M is the number of newly appeared tumors in control group.

[2] = Acute toxicity test (oral and intraperitoneal, Up-and-Down method); design: species or system mouse (ddY strain); settings: mouse, in vivo, 6-week old male ddY mice, 3 weeks observation
Experimental: The acute oral and intraperitoneal toxicity of these compounds were investigated in 6-week old male ddY strain mice. In the oral toxicity study, each test compound was suspended or dissolved in an aqueous solution containing 0.5% of carboxymethylcellulose and 0.5% of Tween 80 and was administered at a dose of 4 ml/100 g. In the intraperitoneal toxicity study, each test compound was suspended or dissolved in physiological saline containing 0.5% of Tween 80 and was administered at a dose of 2 ml/100 g.

[3] = tested on: mammary cancer induced by 7,12-dimethylbenzanthracene (DMBA); assay: Effect on DMBA-induced mammary cancer: inhibition of appearance of new tumor; type: in vivo, rat (Sprague-Dawley, female); settings: for Inhibition of appearance of new tumor: 6 times a week for 3 weeks, 15 animals
Experimental: as §1, §2

[4] = tested on: experimental hormone-dependent tumor cells; settings: vs tamoxifen; cited from earlier work
[5] = vs tamoxifen; cited from earlier work
[6] = ip, intraperitoneal, read-out: LD50 intraperitoneal

Structure (SMILES)	ED50 (uterus; oral, 6 times a week for 3 weeks, immature female SD rats, 7 animals) [mg/kg]	Inhibition of tumor growth (on day 21) ([1]; 0.1 mg/kg/day p.o.) [%]	Inhibition of tumor growth (on day 21) ([1]; 0.3 mg/kg/day p.o.) [%]	LD50 at 504 h [2, 6] [mg/kg]	LD50 at 504 h ([2]; oral, read-out: LD50 oral) [mg/kg]	inhibition of appearance of new mammary cancer, in words ([3]; 0.1 mg/kg/day)	Inhibition of appearance of new tumor ([3]; 0.1 mg/kg/day p.o.) [%]	Inhibition of appearance of new tumor ([3]; 0.3 mg/kg/day p.o.) [%]	antitumor activity in vitro, in words [4]	effectiveness in vivo, in words [5]	ED50 (uterus; po) [mg/kg]
CC/C(=C(\c1ccccc1)c1ccc(OCCN(C)C)cc1)c1ccccc1 [Tamoxifen, reference compound]	0.203	4.7	39.0	177	> 2000	ineffective	-7.7	21.0			
CC/C(=C(\c1ccc(O)cc1)c1ccc(OCCN(C)C)cc1)c1ccccc1 [4-hydroxytamoxifen]									more potent antitumor activity than tamoxifen	inferior in effectiveness to tamoxifen	
CC/C(=C(/c1ccc(OCCN(C)C)cc1)c1ccc(OP(=O)(O)O)cc1)c1ccccc1 [Compound 1, (E)-4-[1-[4-[2-(Dimethylamino)ethoxy]phenyl]-2-phenyl-1-butenyl]-phenyl phosphate]		26.5	42.3	223	> 2000		56.7	54.7			0.076
CCC(=C(c1ccc(OCCN(C)C)cc1)c1ccc(OP(=O)(O)O)cc1)c1ccc(C(C)C)cc1 [Compound 5]		26.5	50.2	354	> 2000		46.7	48.5			0.097
CCOc1ccc(/C(CC)=C(/c2ccc(OCCN(C)C)cc2)c2ccc(OP(=O)(O)O)cc2)cc1 [Compound 7]				223	> 2000						0.026
